In US20260041683A1, “Compounds with Anti-Acinetobacter Baumannii Activity” (University of Kentucky Research Foundation, priority 2022, published 2026):
In brackets after ≈: the same amount, converted by molar mass. Like-named read-outs stand apart in the source and are kept apart here.

Columns and labels:
[1] = test system: all 43 strains of A. baumannii (41 CDC strains and 2 ATCC strains); experiment: MIC value statistics for all A. baumannii strains; type: cell-based, Acinetobacter baumannii; conditions: of 43 A. baumannii strains
Experimental: All bacterial strains listed above were stored at −80° C. All strains were streaked on Mueller-Hinton (MH) plates and allowed to grow at 37° C. overnight. Enough colonies were scraped from the plate and suspended in MH broth with vortexing to reach an attenuance at 600 nm (OD600) of ˜0.5. The resulting culture was diluted 1:1000 and added to the prepared serially doubly diluted compound solutions in 96-well plates. […]. For each row, one well was reserved for sterile control (which consisted of 200 μL of MH medium) and another well was reserved for growth control (which consisted of 100 μL of MH medium seeded with 100 μL of bacterial culture).
Having established that the observed activity is selective to A. baumannii, all synthesized compounds were tested against a panel of antibiotic resistant A. baumannii from the Antimicrobial Resistant (AR) Isolate Bank from the CDC along with strains I and J (Table Si). […]. Based on this statistical analysis, the best compound is 5e followed closely by 3e.

[2] = test system: Ab ATCC BAA1605 (strain J, multidrug-resistant); experiment: MIC determination; type: cell-based; conditions: Acinetobacter baumannii
Experimental: (§1) All bacterial strains listed above were stored at −80° C. All strains were streaked on Mueller-Hinton (MH) plates and allowed to grow at 37° C. overnight. Enough colonies were scraped from the plate and suspended in MH broth with vortexing to reach an attenuance at 600 nm (OD600) of ˜0.5. The resulting culture was diluted 1:1000 and added to the prepared serially doubly diluted compound solutions in 96-well plates. For M. smegmatis, a 1:100 dilution of the bacteria was done in MH. All MIC values were determined using 96-well plates with low evaporation seals at least in duplicate. For each row, one well was reserved for sterile control (which consisted of 200 μL of MH medium) and another well was reserved for growth control (which consisted of 100 μL of MH medium seeded with 100 μL of bacterial culture).
(§2) Minimum inhibitory concentrations (MIC) of all compounds from the series were measured in liquid cultures of different Ab strains by a double-dilution method in Mueller-Hinton broth. Initially, the activity of all 46 compounds against Ab ATCC 19606 (a control strain) and Ab ATCC BAA1605 (a multidrug-resistant strain) (Table 1; data shown for 27 representative compounds) was measured.

Ab ATCC 19606 (strain I) = experiment: MIC determination (double dilution, Mueller-Hinton broth); type: cell-based, Acinetobacter baumannii; conditions: Acinetobacter baumannii, ATCC19606
Experimental: as §1, with “Enough colonies were scraped from the plate and suspended in MH broth with vortexing to reach an attenuance at 600 nm (OD600) of ˜0.5.” left out
as §2

E. coli MC1061 = experiment: MIC determination; type: cell-based; conditions: Escherichia coli; Table 5; Mueller-Hinton medium; D = E. coli MC1061; read-out: MIC strain D
[3] = test system: S. epidermidis ATCC 12228; experiment: MIC determination; type: cell-based; conditions: Staphylococcus epidermidis, ATCC12228; Table 5; Mueller-Hinton medium; C = S. epidermidis ATCC 12228; read-out: MIC strain C
E. cloacae ATCC 13047 = experiment: MIC determination; type: cell-based; conditions: Enterobacter cloacae, ATCC13047; Table 5; Mueller-Hinton medium; E = E. cloacae ATCC 13047; read-out: MIC strain E
P. aeruginosa ATCC 27853 = experiment: MIC determination; type: cell-based; conditions: Pseudomonas aeruginosa, ATCC27853; Table 5; Mueller-Hinton medium; G = P. aeruginosa ATCC 27853; read-out: MIC strain G
S. aureus ATCC 25923 = experiment: MIC determination; type: cell-based; conditions: Staphylococcus aureus, ATCC25923; Table 5; Mueller-Hinton medium; B = S. aureus ATCC 25923; read-out: MIC strain B
S. enterica ATCC 14028 = experiment: MIC determination; type: cell-based; conditions: Salmonella enterica, ATCC14028; Table 5; Mueller-Hinton medium; H = S. enterica ATCC 14028; read-out: MIC strain H
B. anthracis Sterne F32 = experiment: microbe, parasite or virus in culture; type: cell-based; conditions: Bacillus anthracis, STERNEF32, read-out: MIC strain A
K. pneumoniae ATCC 27736 = experiment: MIC determination; type: cell-based; conditions: Klebsiella pneumoniae, ATCC27736; Table 5; Mueller-Hinton medium; F = K. pneumoniae ATCC 27736; read-out: MIC strain F
Gram-negative bacteria = experiment: MIC determination, panel statement; type: cell-based; conditions: moderate activity
[4] = Table 5, Mueller-Hinton medium, J = A. baumannii BAA1605, read-out: MIC strain J
[5] = Table 5, Mueller-Hinton medium, I = A. baumannii ATCC 19606, read-out: MIC strain I
[6] = Table 1, multidrug-resistant strain, read-out: MIC Ab ATCC BAA 1605
[7] = Table 1, control strain, read-out: MIC Ab ATCC 19606

Row | SMILES | MIC [2, 4] | MIC (Ab ATCC 19606 (strain I); [5]) | MIC (E. coli MC1061) | MIC [3] | MIC (E. cloacae ATCC 13047) | MIC (P. aeruginosa ATCC 27853) | MIC (S. aureus ATCC 25923) | MIC (S. enterica ATCC 14028) | MIC (B. anthracis Sterne F32) | MIC (K. pneumoniae ATCC 27736) | number of compound/strain combinations with MIC value 0.25 μg/mL [1] | number of compound/strain combinations with MIC value 0.5 μg/mL [1] | number of compound/strain combinations with MIC value ≤0.125 μg/mL [1] | MIC [2, 6] | MIC (Ab ATCC 19606 (strain I); [7]) | number of compound/strain combinations with MIC value 1 μg/mL [1] | also measured
1 | O=C(NNC1CCCCC1)c1ccc2ccccc2n1 [Compound 12h] | > 64 µg/mL | > 64 µg/mL | 64 µg/mL (≈ 238 µM) | > 64 µg/mL | > 64 µg/mL | > 64 µg/mL | > 64 µg/mL | > 64 µg/mL | > 64 µg/mL | > 64 µg/mL |  |  |  |  |  |  | number of compound/strain combinations with MIC value >64 μg/mL [1]: 43
2 | C=CC(=O)NNc1ccc(Cl)cc1 [Compound 17e] | 0.25 µg/mL (≈ 1.27 µM) | 0.25 µg/mL (≈ 1.27 µM) | 16 µg/mL (≈ 81.4 µM) | 64 µg/mL (≈ 325 µM) | 16 µg/mL (≈ 81.4 µM) | > 64 µg/mL | 64 µg/mL (≈ 325 µM) | 16 µg/mL (≈ 81.4 µM) | > 64 µg/mL | 16 µg/mL (≈ 81.4 µM) | 21 | 13 | 9 | 0.25 µg/mL (≈ 1.27 µM) | 0.25 µg/mL (≈ 1.27 µM) |  | 
3 | O=C(NNc1ccc(Cl)cc1)c1ccco1 [Compound 15e] | ≤ 0.125 µg/mL | 0.5 µg/mL (≈ 2.11 µM) | 16 µg/mL (≈ 67.6 µM) | 64 µg/mL (≈ 270 µM) | 4 µg/mL (≈ 16.9 µM) | > 64 µg/mL | 64 µg/mL (≈ 270 µM) | 16 µg/mL (≈ 67.6 µM) | > 64 µg/mL | 16 µg/mL (≈ 67.6 µM) | 18 | 10 | 13 | ≤ 0.125 µg/mL | 0.5 µg/mL (≈ 2.11 µM) | 2 | 
4 | O=C(NNc1ccc(Cl)cc1)c1ccc2ccccc2n1 [Compound 12e] | 0.5 µg/mL (≈ 1.68 µM) | 0.5 µg/mL (≈ 1.68 µM) | 16 µg/mL (≈ 53.7 µM) | > 64 µg/mL | > 64 µg/mL | > 64 µg/mL | > 64 µg/mL | > 64 µg/mL | > 64 µg/mL | > 64 µg/mL | 7 | 19 |  | 0.5 µg/mL (≈ 1.68 µM) | 0.5 µg/mL (≈ 1.68 µM) | 17 | 
5 | O=C(NNc1ccc(Cl)cc1)c1cccc(F)n1 [Compound 5e] | ≤ 0.125 µg/mL | ≤ 0.125 µg/mL | 16 µg/mL (≈ 60.2 µM) | > 64 µg/mL | 16 µg/mL (≈ 60.2 µM) | > 64 µg/mL | > 64 µg/mL | 16 µg/mL (≈ 60.2 µM) | > 64 µg/mL | 16 µg/mL (≈ 60.2 µM) | 21 | 2 | 20 | 0.125 µg/mL (≈ 0.47 µM) | 0.125 µg/mL (≈ 0.47 µM) |  | MIC (Gram-negative bacteria): 4 to 16 µg/mL (≈ 15.1 to 60.2 µM)
6 | COc1ccc(NNC(=O)c2ccc(F)cn2)cc1 [Compound 3f] | 0.5 µg/mL (≈ 1.91 µM) | 1 µg/mL (≈ 3.83 µM) | > 64 µg/mL | > 64 µg/mL | > 64 µg/mL | > 64 µg/mL | > 64 µg/mL | > 64 µg/mL | > 64 µg/mL | > 64 µg/mL | 1 | 2 |  | 0.5 µg/mL (≈ 1.91 µM) | 1 µg/mL (≈ 3.83 µM) | 9 | number of compound/strain combinations with MIC value 2 μg/mL [1]: 19; number of compound/strain combinations with MIC value 4 μg/mL [1]: 11; number of compound/strain combinations with MIC value 8 μg/mL [1]: 1
7 | O=C(NNc1cccc(F)c1)c1ccc(F)cn1 [Compound 3a] | 0.5 µg/mL (≈ 2.01 µM) | 0.5 µg/mL (≈ 2.01 µM) | 64 µg/mL (≈ 257 µM) | > 64 µg/mL | > 64 µg/mL | > 64 µg/mL | > 64 µg/mL | > 64 µg/mL | > 64 µg/mL | > 64 µg/mL | 16 | 18 | 9 | 0.5 µg/mL (≈ 2.01 µM) | 0.5 µg/mL (≈ 2.01 µM) |  | 
8 | CCC(=O)NNc1ccc(Cl)cc1 [Compound 16e] | ≤ 0.125 µg/mL | ≤ 0.125 µg/mL | 16 µg/mL (≈ 80.5 µM) | > 64 µg/mL | 16 µg/mL (≈ 80.5 µM) | > 64 µg/mL | > 64 µg/mL | 64 µg/mL (≈ 322 µM) | > 64 µg/mL | 16 µg/mL (≈ 80.5 µM) | 17 | 10 | 15 | ≤ 0.125 µg/mL | ≤ 0.25 µg/mL | 1 | 
9 | O=C(NNc1ccc(F)cc1)c1ccc(F)cn1 [Compound 3d] | 0.25 µg/mL (≈ 1 µM) | 0.5 µg/mL (≈ 2.01 µM) | 64 µg/mL (≈ 257 µM) | > 64 µg/mL | 64 µg/mL (≈ 257 µM) | > 64 µg/mL | > 64 µg/mL | 64 µg/mL (≈ 257 µM) | > 64 µg/mL | 64 µg/mL (≈ 257 µM) | 10 | 19 | 1 | 0.25 µg/mL (≈ 1 µM) | 0.5 µg/mL (≈ 2.01 µM) | 13 | 
10 | CCOC(=O)CNNC(=O)c1ccc2ccccc2n1 [Compound 12g] | > 64 µg/mL | > 64 µg/mL | > 64 µg/mL | > 64 µg/mL | > 64 µg/mL | > 64 µg/mL | > 64 µg/mL | > 64 µg/mL | > 64 µg/mL | > 64 µg/mL |  |  |  |  |  |  | number of compound/strain combinations with MIC value >64 μg/mL [1]: 43
11 | COc1cccc(NNC(=O)c2ccc(F)cn2)c1 [Compound 3c] | 0.5 µg/mL (≈ 1.91 µM) | 0.5 µg/mL (≈ 1.91 µM) | > 64 µg/mL | 64 µg/mL (≈ 245 µM) | > 64 µg/mL | > 64 µg/mL | > 64 µg/mL | > 64 µg/mL | > 64 µg/mL | > 64 µg/mL | 2 | 12 | 1 | 0.5 µg/mL (≈ 1.91 µM) | 0.5 µg/mL (≈ 1.91 µM) | 23 | number of compound/strain combinations with MIC value 2 μg/mL [1]: 5
12 | O=C(NNc1ccc(Cl)cc1)c1cc2ccccc2[nH]1 [Compound 14e] | 0.25 µg/mL (≈ 0.875 µM) | 0.5 µg/mL (≈ 1.75 µM) | > 64 µg/mL | > 64 µg/mL | > 64 µg/mL | > 64 µg/mL | > 64 µg/mL | > 64 µg/mL | > 64 µg/mL | > 64 µg/mL | 18 | 20 | 3 |  |  | 2 | 
